Experimental data as given in ChEMBL document CHEMBL1201862, “PubChem BioAssay data set” (2004).
Activity calls are given as the source filed them.

Experiments:
[1] = target: T1, DNA dC->dU-editing enzyme APOBEC-3A (Homo sapiens, UniProt P31941); assay: Dose Response confirmation of small molecule APOBEC3A DNA Deaminase Inhibitors via a fluorescence-based single-stranded DNA deaminase assay. [Related pubchem assays (depositor defined):AID493011, AID493024]; type: functional
[2] = target: T2, DNA dC->dU-editing enzyme APOBEC-3G (Homo sapiens, UniProt Q9HC16); assay: SAR analysis of small molecule inhibitors of APOBEC3G DNA Deaminase via a fluorescence-based single-stranded DNA deaminase assay - Set 2.; type: functional; details: read-out: IC50_Mean
[3] = target: T3, Microphthalmia-associated transcription factor (Homo sapiens, UniProt O75030); assay: reducers of TRPM1 reporter luminescence, concentration series – cell-based, SK-MEL-5, cherry-picked, set 3, MITF inhibitor project, dose response (AID 493073); type: functional;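 also: SK-MEL-5 melanoma cells with luciferase driven by the MITF target TRPM1 promoter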
T3 sequence (O75030 whole entry): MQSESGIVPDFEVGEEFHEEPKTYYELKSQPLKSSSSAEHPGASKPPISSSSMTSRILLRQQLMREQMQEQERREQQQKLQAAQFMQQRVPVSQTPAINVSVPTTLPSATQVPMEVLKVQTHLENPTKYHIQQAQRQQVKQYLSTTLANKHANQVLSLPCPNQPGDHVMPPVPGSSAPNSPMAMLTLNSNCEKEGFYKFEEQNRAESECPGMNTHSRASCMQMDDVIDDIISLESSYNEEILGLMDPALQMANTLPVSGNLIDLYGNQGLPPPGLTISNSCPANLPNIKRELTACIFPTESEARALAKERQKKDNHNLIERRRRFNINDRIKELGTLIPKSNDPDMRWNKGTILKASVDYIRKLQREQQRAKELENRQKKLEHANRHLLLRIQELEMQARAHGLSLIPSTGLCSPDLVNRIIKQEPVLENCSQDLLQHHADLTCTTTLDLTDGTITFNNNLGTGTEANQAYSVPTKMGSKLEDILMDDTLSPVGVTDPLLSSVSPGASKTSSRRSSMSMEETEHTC

[4] = target: T2, DNA dC->dU-editing enzyme APOBEC-3G; type: functional
[5] = target: T4, Alkaline phosphatase, tissue-nonspecific isozyme (Homo sapiens, UniProt P05186); assay: TNAP enzyme inhibition by screening hits, dose response, selectivity assay for mouse IAP inhibitor project, biochemical, human TNAP, uHTS hits (AID 488906); type: functional
T4 sequence (P05186 whole entry): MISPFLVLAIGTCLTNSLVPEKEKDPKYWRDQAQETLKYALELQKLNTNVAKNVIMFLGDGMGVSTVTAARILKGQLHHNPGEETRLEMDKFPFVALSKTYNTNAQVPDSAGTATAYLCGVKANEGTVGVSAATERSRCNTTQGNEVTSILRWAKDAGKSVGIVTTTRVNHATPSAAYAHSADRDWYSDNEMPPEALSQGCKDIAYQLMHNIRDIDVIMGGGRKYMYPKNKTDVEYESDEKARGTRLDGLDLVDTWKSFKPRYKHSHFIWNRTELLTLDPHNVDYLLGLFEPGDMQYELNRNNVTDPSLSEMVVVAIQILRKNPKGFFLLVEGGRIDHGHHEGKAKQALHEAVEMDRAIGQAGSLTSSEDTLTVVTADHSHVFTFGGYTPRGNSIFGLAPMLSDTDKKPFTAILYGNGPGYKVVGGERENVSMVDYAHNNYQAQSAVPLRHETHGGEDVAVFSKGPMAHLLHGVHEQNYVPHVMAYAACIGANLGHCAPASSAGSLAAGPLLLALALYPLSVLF

[6] = target: T1, DNA dC->dU-editing enzyme APOBEC-3A; assay: SAR analysis of small molecule inhibitors of APOBEC3A DNA Deaminase via a fluorescence-based single-stranded DNA deaminase assay - Set 2.; type: functional; details: read-out: IC50_Mean
[7] = target: T2, DNA dC->dU-editing enzyme APOBEC-3G; assay: inhibition of APOBEC3G ssDNA deamination – biochemical, fluorescence, single-stranded DNA substrate, SAR follow-up (AID 602136); type: functional; details: read-out: IC50_Mean
[8] = target: Intestinal-type alkaline phosphatase (Homo sapiens, UniProt P09923); assay: inhibition of human intestinal alkaline phosphatase – biochemical, dose response (AID 488876); type: functional
[9] = target: Intestinal-type alkaline phosphatase (Mus musculus, UniProt P24822); assay: PubChem AID 488785; type: functional
[10] = target: T1, DNA dC->dU-editing enzyme APOBEC-3A; assay: SAR analysis of small molecule inhibitors of APOBEC3A DNA Deaminase via a fluorescence-based single-stranded DNA deaminase assay.; type: functional; details: read-out: IC50_Mean
Melanocortin receptor 4 = Melanocortin receptor 4 (Homo sapiens, UniProt P32245); assay: inhibitors of MC4R cAMP signaling – cell-based, TR-FRET, biased antagonists, dose response (AID 602298); type: functional;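 also: antagonist potency against agonist-stimulated cAMP production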
[11] = NIH-3T3 fibroblast cytotoxicity, dose response, cytotoxicity control, cell-based, fluorescence, Alamar Blue, secondary assay (AID 2327); type: functional;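 also: NIH-3T3 mouse fibroblasts cultured with fluconazole at 8 µg/mL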
[12] = fluconazole-exposed Candida albicans growth modulators – fluorescence, retest, confirmation (AID 2467); type: functional, cell-based
[13] = target: T5, Replicative DNA helicase DnaB (Mycobacterium tuberculosis, UniProt P9WMR3); assay: DnaB intein splicing inhibitors, dose response, biochemical, cell-free fluorescence (AID 449749); type: functional
T5 sequence (P9WMR3 whole entry): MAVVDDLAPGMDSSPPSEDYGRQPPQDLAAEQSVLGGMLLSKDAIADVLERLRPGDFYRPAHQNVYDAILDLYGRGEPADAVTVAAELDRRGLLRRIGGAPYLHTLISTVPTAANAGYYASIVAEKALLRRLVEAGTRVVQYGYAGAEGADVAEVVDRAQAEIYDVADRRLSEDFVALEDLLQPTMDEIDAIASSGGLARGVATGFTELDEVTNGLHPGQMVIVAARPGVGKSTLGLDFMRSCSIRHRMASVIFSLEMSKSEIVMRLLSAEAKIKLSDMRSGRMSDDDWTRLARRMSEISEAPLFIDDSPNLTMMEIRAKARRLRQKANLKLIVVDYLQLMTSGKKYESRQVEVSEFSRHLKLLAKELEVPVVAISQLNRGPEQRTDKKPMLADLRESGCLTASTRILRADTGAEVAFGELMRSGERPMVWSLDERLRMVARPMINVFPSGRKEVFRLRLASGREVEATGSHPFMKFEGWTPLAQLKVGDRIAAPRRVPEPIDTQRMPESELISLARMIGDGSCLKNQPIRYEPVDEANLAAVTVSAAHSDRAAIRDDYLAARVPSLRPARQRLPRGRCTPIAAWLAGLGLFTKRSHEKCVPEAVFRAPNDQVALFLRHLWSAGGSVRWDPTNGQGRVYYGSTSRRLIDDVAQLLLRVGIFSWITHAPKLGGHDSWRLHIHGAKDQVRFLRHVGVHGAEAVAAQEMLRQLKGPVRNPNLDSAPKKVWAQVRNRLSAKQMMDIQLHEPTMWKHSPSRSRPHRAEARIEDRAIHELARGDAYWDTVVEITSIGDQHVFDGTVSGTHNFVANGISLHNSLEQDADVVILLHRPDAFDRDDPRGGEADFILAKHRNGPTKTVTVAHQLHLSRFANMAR

[14] = target: Heat shock protein HSP 90-alpha (Homo sapiens, UniProt P07900); type: functional, organism-based
[15] = viability of PTEN-deleted HCT116 cells – cell-based, HCT116 PTEN knockout, dose response (AID 1047); type: functional;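 also: HCT116 colon tumor cells with PTEN knocked out; cells exposed to compound for 60 hours before readout; potency for loss of cell viability measured by luminescence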
HEK293 [16] = assay: cells; details: Homo sapiens
[17] = cAMP pathway inhibition in counterscreen cell line – TR-FRET cAMP detection, counter-screen for MC4R biased antagonist project, dose response (AID 602305); type: functional, cell-based;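 also: U2OS cells stimulated with forskolin near its EC80 as the cAMP inducer; potency is for inhibition of forskolin-stimulated cAMP signaling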
[18] = reduction of Shn3 3'UTR-driven luciferase in osteoblasts – cell-based, Clone20 osteoblasts, firefly luciferase, cherry-picked, dose response (AID 624132); type: functional;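 also: firefly luciferase luminescence from reporter carrying the Shn3 3'UTR in osteoblasts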
[19] = viability of HCT116 lacking mutant beta-catenin – cell-based, human colon tumor, dose response (AID 1045); type: functional;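 also: HCT116 colon tumor cells with beta catenin knocked out; cells exposed to compound for 60 hours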
[20] = non-specific 3'UTR reporter inhibition in Clone20-Shn3RL – cell-based, Renilla luciferase, cherry-picked, counter-screen for Shn3 inhibitor project, dose response (AID 624133); type: functional
HEK293 [21] = assay: cells; details: Homo sapiens; remark: listed apart in the source
Protein RecA = target: T6, Protein RecA (Mycobacterium tuberculosis, UniProt P9WHJ3); assay: Fluorescence Cell-Free Homogeneous Dose Retest to Identify Inhibitors of RecA-Intein Splicing Activity. [Related pubchem assays (depositor defined):AID2097, AID2223, AID489010, AID492950]; type: functional
T6 sequence (P9WHJ3 whole entry): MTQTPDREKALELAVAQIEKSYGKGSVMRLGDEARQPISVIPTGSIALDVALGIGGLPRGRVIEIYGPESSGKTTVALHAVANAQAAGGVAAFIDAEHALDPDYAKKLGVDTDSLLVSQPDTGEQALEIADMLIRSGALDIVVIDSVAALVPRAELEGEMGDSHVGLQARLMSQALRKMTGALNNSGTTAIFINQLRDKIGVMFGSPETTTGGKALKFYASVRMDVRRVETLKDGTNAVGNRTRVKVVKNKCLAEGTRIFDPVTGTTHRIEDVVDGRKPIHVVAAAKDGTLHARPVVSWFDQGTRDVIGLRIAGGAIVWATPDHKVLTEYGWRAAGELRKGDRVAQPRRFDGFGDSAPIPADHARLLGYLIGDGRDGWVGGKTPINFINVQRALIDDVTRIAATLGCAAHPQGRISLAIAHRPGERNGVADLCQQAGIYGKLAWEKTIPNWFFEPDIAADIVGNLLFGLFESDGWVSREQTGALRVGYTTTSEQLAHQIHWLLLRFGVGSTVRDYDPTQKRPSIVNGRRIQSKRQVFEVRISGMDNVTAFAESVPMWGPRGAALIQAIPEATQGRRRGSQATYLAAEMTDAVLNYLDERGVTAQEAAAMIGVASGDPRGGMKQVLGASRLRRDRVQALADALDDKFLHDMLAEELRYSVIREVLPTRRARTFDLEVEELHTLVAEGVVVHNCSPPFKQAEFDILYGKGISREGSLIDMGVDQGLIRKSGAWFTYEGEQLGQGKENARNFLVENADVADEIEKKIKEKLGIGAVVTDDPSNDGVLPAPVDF

[22] = target: T7, High affinity choline transporter 1 (Homo sapiens, UniProt Q9GZV3); assay: human choline transporter blockers, potency – cell-based, 10-point CRC, membrane potential dye, dose response (AID 588401); type: functional;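 also: membrane potential dye fluorescence of choline-evoked depolarization via CHT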
T7 sequence (Q9GZV3 whole entry): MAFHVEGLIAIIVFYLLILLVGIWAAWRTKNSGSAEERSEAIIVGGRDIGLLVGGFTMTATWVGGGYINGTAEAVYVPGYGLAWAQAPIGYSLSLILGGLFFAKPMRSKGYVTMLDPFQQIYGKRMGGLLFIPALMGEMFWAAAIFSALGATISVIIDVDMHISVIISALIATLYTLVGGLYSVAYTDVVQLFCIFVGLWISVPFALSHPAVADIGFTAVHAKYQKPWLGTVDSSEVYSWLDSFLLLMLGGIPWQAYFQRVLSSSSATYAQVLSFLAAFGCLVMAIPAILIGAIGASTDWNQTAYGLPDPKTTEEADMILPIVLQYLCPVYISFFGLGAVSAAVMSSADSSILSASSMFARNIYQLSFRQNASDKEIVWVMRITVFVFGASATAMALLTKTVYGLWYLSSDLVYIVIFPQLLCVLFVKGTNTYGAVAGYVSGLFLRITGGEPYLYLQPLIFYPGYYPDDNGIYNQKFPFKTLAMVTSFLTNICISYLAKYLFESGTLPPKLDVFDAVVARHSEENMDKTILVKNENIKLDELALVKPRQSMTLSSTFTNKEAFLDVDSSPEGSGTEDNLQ

[23] = target: T7, High affinity choline transporter 1; assay: human choline transporter blockers, potency – cell-based, 5-point CRC, membrane potential dye, dose response (AID 504840); type: functional

T1 sequence (P31941 whole entry): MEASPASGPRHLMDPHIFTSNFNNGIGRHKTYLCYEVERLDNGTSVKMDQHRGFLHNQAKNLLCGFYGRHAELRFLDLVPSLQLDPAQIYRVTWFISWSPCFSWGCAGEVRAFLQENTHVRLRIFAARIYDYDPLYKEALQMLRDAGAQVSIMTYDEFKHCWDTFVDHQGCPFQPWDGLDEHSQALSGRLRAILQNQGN
T2 sequence (Q9HC16 whole entry): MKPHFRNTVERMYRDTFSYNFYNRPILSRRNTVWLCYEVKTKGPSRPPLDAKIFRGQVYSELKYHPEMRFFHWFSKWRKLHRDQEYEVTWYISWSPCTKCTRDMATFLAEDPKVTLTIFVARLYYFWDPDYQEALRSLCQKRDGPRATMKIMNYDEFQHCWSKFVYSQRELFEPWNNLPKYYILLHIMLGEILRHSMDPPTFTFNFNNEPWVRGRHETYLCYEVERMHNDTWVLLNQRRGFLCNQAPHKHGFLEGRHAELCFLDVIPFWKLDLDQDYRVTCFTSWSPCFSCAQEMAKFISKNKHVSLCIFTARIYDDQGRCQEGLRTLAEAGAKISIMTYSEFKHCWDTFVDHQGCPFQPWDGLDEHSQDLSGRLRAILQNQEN
Chain of Intestinal-type alkaline phosphatase (Mus musculus, UniProt P24822) (P24822 whole entry): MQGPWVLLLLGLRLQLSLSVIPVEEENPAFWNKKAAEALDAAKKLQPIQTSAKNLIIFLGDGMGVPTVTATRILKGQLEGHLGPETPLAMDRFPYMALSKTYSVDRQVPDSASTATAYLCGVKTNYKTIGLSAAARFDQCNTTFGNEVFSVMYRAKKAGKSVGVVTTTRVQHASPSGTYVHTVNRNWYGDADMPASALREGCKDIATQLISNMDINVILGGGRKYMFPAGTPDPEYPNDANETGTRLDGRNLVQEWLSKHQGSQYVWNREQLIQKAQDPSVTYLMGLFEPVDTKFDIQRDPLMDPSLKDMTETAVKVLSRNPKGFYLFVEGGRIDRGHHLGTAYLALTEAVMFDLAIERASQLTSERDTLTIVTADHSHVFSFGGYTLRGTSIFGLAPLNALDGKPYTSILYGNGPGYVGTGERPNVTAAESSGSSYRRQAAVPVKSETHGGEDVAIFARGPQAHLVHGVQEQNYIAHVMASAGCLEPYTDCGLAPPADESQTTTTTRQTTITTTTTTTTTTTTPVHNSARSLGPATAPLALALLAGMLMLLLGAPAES
Chain of Melanocortin receptor 4 (P32245 whole entry): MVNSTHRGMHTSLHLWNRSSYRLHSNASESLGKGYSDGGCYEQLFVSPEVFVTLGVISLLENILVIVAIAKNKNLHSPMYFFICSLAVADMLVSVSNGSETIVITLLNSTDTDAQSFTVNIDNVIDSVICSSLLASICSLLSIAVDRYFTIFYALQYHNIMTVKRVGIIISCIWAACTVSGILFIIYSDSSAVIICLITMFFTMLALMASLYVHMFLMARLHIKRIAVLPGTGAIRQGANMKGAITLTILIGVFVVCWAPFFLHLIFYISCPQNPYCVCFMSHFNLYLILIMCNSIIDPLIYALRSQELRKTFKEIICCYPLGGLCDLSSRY
Chain of Intestinal-type alkaline phosphatase (Homo sapiens, UniProt P09923) (P09923 whole entry): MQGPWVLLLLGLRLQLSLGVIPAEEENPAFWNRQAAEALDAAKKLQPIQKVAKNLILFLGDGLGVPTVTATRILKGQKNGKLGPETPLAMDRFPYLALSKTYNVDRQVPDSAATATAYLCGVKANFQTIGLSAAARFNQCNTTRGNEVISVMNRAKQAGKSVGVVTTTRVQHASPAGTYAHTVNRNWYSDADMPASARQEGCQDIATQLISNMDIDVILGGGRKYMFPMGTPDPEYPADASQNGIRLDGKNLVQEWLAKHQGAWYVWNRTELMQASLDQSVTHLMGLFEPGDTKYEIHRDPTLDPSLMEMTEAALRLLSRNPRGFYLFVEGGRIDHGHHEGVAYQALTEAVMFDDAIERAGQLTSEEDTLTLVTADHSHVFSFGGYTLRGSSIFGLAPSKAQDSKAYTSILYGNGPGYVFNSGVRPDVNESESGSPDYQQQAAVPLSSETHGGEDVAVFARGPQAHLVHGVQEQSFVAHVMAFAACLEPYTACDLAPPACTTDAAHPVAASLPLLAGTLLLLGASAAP

For `Cn1nc([N+](=O)[O-])nc1S(C)(=O)=O`, the IC50 [1] was 4.14 µM (active), the IC50 [2] was 24.1 µM (inactive) and the AC50 [3] was 9.2 µM (active). For the same compound, the IC50 [4] was 65.5 µM (active), the IC50 [5] was 74.1 µM (active) and the IC50 [6] was 13.1 µM (inactive). For the same compound, the IC50 [7] was 27.2 µM (inactive), the IC50 [8] was > 100 µM (inactive) and the IC50 [9] was 5.66 µM (active). The IC50 [10] was 14.4 µM (inactive).
For `O=[N+]([O-])c1cc(S(=O)(=O)C(F)(F)F)ccc1Sc1nc2ccccc2s1`, the IC50 (Melanocortin receptor 4) was > 2.39 µM (active), the EC50 [11] was 5 µM (active) and the EC50 [12] was > 38 µM (not active). For the same compound, the AC50 [13] was 1.75 µM (active), the AC50 [14] was 1.75 µM (active) and the EC50 [15] was 8.04 µM (active). The EC50 (HEK293 [16]) was > 59.6 µM (inactive), the IC50 [17] was > 64.6 µM (inactive) and the AC50 [18] was 2.45 µM (active). For the same compound, the EC50 [19] was 7.45 µM (active), the AC50 [20] was 15.4 µM (active) and the EC50 (HEK293 [21]) was > 59.6 µM (inactive). For the same compound, the EC50 (Protein RecA) was 0.249 µM (active).
With `CC1CCCCC1NC(=O)C1CCCN(S(=O)(=O)c2ccc(-n3cnnn3)cc2)C1` (stereo not given) the IC50 [22] was 3.98 µM (active) and the IC50 [23] was 5.75 µM (active).
